Data on 4 molecules can be found in paper PMC8668026 (ACS infectious diseases, 2021).

As usually defined, the MIC is the lowest concentration that inhibits growth of the organism. As a reminder, the Kd is the concentration at which binding is half-saturated. As a reminder, the CC50 is the concentration that lowers cell viability or growth by half. Read a low CC50 as greater toxicity to the cells.

The structures appear in SMILES notation. Values after ≈ are worked out from the molar mass of the structure shown. Square brackets hold non-standard residues; d marks the D form. Peptide text beside a SMILES is read from it. * marks the point of attachment. ξ: configuration not given here. ξR = N=C(N)NCCCC(N)C(=O)O; βNA = c1ccc2cc(N*)ccc2c1

Data set [1] has as its system E. cloacae ATCC13047. Put plainly: MIC in E. cloacae. Type of data set: cell-based, Enterobacter cloacae.
The test system of another data set is E. coli BW25113 (WT). Put plainly: MIC, 2-fold broth dilution, E. coli WT. Type of data set: cell-based, Escherichia coli. Conditions: for MIC: Escherichia coli, BW25113, read-out: MIC WT.
Another data set deals with E. coli ΔtolC. Nature of the data set: MIC, 2-fold broth dilution, efflux-deficient ΔtolC. Type of data set: cell-based, Escherichia coli. As to conditions: average of two replicates. Background: Dilution methods test growth across graded concentrations, often in twofold steps.
Another data set deals with E. coli WT-pore. Nature of the data set: MIC, 2-fold broth dilution, hyperporinated WT-pore. Type of data set: cell-based, Escherichia coli. As to conditions: for MIC: Escherichia coli, read-out: MIC WT-pore.
For data set [2], the target named is T1, AcrA (Escherichia coli, UniProt P0AE06). Conditions: read-out: KD AcrA; SPR; ref [38] and [47]; cited from earlier work.
T1 sequence (P0AE06 25-397): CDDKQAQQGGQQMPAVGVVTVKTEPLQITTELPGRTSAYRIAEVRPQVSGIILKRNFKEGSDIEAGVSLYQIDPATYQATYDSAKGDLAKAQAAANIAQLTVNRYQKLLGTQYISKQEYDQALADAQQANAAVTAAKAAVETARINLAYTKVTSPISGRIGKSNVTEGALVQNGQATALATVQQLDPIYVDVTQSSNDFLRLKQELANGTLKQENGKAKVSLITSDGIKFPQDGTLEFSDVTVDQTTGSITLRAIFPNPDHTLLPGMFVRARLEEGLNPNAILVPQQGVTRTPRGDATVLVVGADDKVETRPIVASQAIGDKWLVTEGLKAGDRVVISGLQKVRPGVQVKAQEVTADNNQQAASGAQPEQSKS
The next data set has as its system E. coli ΔtolC-pore. Put plainly: MIC, 2-fold broth dilution, ΔtolC-pore. In kind it is cell-based, Escherichia coli. As to conditions: average of two replicates.
Data set [3] has as its system K. pneumoniae ATCC13883. Nature of the data set: MIC in K. pneumoniae. In kind it is cell-based, Klebsiella pneumoniae.
Data set [4] concerns the target T1, AcrA. As to conditions: periplasm of WT-pore cells; trypsin; accumulation of K46-K346 fragment.
Data set [5] deals with K. pneumoniae ATCC13883. Put plainly: Potentiation of NOV, ERY, CIP in K. pneumoniae. Type of data set: cell-based, Klebsiella pneumoniae.
The target of the next data set is AcrAB−TolC (Escherichia coli, UniProt P0AE06+P31224). As to conditions: steady-state Nile Red accumulation in WT-pore cells with 32 μM vs 0 μM compound.
Sequence of AcrAB−TolC (P31224 whole entry): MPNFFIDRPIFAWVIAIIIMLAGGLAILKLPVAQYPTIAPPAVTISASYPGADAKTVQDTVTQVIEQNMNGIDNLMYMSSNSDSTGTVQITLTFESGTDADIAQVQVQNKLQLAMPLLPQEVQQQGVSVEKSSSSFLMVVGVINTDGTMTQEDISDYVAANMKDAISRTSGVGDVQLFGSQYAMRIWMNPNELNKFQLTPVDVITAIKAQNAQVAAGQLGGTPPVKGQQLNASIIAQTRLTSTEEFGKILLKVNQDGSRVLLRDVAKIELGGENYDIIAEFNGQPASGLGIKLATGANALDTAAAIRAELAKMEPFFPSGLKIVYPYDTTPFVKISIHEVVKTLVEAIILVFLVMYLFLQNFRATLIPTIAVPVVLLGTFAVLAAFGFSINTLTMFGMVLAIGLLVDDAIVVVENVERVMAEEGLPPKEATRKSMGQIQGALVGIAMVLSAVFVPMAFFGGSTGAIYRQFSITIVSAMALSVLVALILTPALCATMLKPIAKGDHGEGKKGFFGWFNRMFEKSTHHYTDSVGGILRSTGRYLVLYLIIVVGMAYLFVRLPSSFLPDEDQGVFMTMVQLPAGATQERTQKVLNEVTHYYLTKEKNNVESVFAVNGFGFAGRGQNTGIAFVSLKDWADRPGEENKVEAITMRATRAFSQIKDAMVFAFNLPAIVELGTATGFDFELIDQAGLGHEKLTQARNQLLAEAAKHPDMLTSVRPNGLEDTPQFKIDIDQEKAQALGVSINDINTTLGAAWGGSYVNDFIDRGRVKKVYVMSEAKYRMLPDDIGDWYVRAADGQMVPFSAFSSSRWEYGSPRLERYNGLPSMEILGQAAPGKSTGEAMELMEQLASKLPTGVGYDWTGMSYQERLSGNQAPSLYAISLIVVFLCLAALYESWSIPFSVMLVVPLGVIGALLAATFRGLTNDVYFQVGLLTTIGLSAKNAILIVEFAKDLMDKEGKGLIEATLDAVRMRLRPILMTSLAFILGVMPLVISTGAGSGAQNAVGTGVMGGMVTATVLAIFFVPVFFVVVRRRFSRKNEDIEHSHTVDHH
Sequence of AcrAB−TolC (P0AE06 25-397): as the sequence (P0AE06 25-397) above
Sequence of AcrAB−TolC (P02930 23-493, further chain): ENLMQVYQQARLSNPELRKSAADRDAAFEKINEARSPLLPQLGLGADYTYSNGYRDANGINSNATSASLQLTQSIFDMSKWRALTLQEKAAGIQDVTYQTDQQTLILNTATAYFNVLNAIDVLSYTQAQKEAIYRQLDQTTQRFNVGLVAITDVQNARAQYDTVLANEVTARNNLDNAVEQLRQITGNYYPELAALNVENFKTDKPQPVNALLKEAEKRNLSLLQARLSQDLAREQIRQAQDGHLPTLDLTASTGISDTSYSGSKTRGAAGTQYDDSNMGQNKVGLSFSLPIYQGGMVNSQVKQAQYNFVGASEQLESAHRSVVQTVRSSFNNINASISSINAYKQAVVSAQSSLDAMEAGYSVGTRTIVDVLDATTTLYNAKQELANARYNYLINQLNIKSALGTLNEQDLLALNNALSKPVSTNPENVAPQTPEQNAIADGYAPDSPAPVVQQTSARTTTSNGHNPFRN
In the next data set the test system is A549 cells. Nature of the data set: MTS cytotoxicity assay. In kind it is cell-based, human. As to conditions: average of two replicates.
The next data set relates to E. coli WT-pore cells. Put plainly: Checkerboard potentiation of novobiocin/erythromycin. In kind it is cell-based, Escherichia coli.
Data set [6] relates to E. cloacae ATCC13047. Put plainly: Potentiation of NOV, ERY, CIP in E. cloacae. In kind it is cell-based, Enterobacter cloacae.
For another data set, the target named is AcrB (Escherichia coli, UniProt P31224). Conditions: read-out: KD AcrB; SPR; ref [38] and [47]; cited from earlier work.
Sequence of AcrB (P31224 whole entry): as the sequence (P31224 whole entry) above
[7] abbreviates: Enterobacter cloacae, ATCC13047.
The mark [8] stands for this setting: Klebsiella pneumoniae, ATCC13883.

As to `CO[C@@H]1[C@@H](OC(N)=O)[C@@H](O)[C@H](Oc2ccc3c(O)c(NC(=O)c4ccc(O)c(CC=C(C)C)c4)c(=O)oc3c2C)OC1(C)C` [NOV, novobiocin], the minimal inhibitory concentration (MIC) in the data set with E. cloacae ATCC13047 [1] (setting [7]) was 400 µg/mL; with E. coli BW25113 (WT), 128 µM (≈ 78.4 µg/mL); in the data set on E. coli WT-pore, 32 to 64 µM (≈ 19.6 to 39.2 µg/mL); in the data set with K. pneumoniae ATCC13883 [3] (setting [8]), 50 µg/mL. For the same molecule, in the data set on E. coli ΔtolC, the “MIC ΔtolC” value stood at 0.5 µM (≈ 0.306 µg/mL). Also, the dissociation constant (Kd) at AcrA [2] is 40 µM. Also, the “MIC ΔtolC-pore” value against E. coli ΔtolC-pore is 0.125 µM (≈ 0.0766 µg/mL).

Molecule `Cc1cc(N)c2cc(NC(=O)/C=C/c3ccccc3Cl)ccc2n1` [Compound 2] had a minimum inhibitory concentration (MIC) against E. cloacae ATCC13047 [1] (E. cloacae ATCC13047, test compounds, average of two replicates) of over 100 µM. In the data set with E. coli BW25113 (WT) (E. coli WT, average of two replicates), the “MIC WT” value stood at 200 µM (≈ 67.6 µg/mL). Besides, the “MIC ΔtolC” value in the data set with E. coli ΔtolC was determined as 12.5 µM (≈ 4.22 µg/mL). In addition, the “effect on proteolytic profile of AcrA” value on AcrA [4] is reported as “did not affect the proteolytic profiles of AcrA”. The “MIC WT-pore” value against E. coli WT-pore (E. coli hyperporinated WT-pore, average of two replicates) turned out to be 100 µM (≈ 33.8 µg/mL). Further, the “fold MIC (NOV)” value in the data set on K. pneumoniae ATCC13883 [5] is listed as 64. Moreover, the “MIC ΔtolC-pore” value against E. coli ΔtolC-pore was 12.5 µM (≈ 4.22 µg/mL). The “efflux inhibition, SS ratio 32 μM/0 μM” value at AcrAB−TolC is listed as 6.5. In the data set on K. pneumoniae ATCC13883 [3] (K. pneumoniae ATCC13883, test compounds, average of two replicates), this molecule showed a minimal inhibitory concentration (MIC) of over 100 µM. In the data set on A549 cells, the CC50 came to 10 µM. The “potentiation MPC4 (ERY)” value in the data set on E. coli WT-pore cells (minimum concentration reducing MIC of erythromycin 4-fold) amounted to 3.1 µM. For the same molecule, the “potentiation MPC4 (NOV)” value with E. coli WT-pore cells (minimum concentration reducing MIC of novobiocin 4-fold) is 1.56 µM. In the data set on E. cloacae ATCC13047 [6], the “fold MIC (CIP)” value is listed as 1, the “fold MIC (ERY)” value worked out at 8 and the “fold MIC (NOV)” value is reported as 64.

For the molecule `NC(N)=NCCCC(NC(=O)[C@@H](N)Cc1ccccc1)C(=O)Nc1ccc2ccccc2c1` (stereo partly shown) [MC] (H-Phe-[ξR]-βNA), on AcrB, the Kd was 110 µM.

For the molecule `CC[C@H]1OC(=O)[C@H](C)[C@@H](O[C@H]2C[C@@](C)(OC)[C@@H](O)[C@H](C)O2)[C@H](C)[C@@H](O[C@@H]2O[C@H](C)C[C@H](N(C)C)[C@H]2O)[C@](C)(O)C[C@@H](C)C(=O)[C@H](C)[C@@H](O)[C@]1(C)O` [ERY, erythromycin], the MIC in the data set on E. cloacae ATCC13047 [1] (setting [7]) was 400 µg/mL; in the data set on E. coli BW25113 (WT) it was 64 µM (≈ 47 µg/mL); in the data set on E. coli WT-pore, 4 to 8 µM (≈ 2.94 to 5.87 µg/mL); with K. pneumoniae ATCC13883 [3] (setting [8]) it was 400 µg/mL. The “MIC ΔtolC” value in the data set with E. coli ΔtolC amounted to 2 µM (≈ 1.47 µg/mL).
